Experimental data as given in the SangsterLogP compilation.

Experiment: method code SF-AS, from PMID: 6637504
Details: pH 5.0

`O=c1c2c(nc3n1CCC3)CCCCCC2` and `O=c1c2c(nc3n1CCC3)CCCCC2` are within 0.2 log units of each other in logD: 1.41 for the first, 1.25 for the second.

First: O=c1c2c(nc3ccccn13)CCC2
Second: Cc1cccn2c(=O)c3c(nc12)CCC3
The logD of the first is lower: 1.19 for the first, 1.72 for the second.

`CC1CCc2nc3c(c(=O)n2C1)CCC3` (stereo not drawn) and `CC1CCn2c(nc3c(c2=O)CCC3)C1` (stereo not drawn) are within 0.2 log units of each other in logD: 1.2 for the first, 1.22 for the second.

`O=c1c2c(nc3n1CCCC3)CCC2` and `O=c1c2c(nc3n1CCC3)CCCC2` are within 0.2 log units of each other in logD: 0.72 for the first, 0.83 for the second.

Going from `O=c1c2ccccc2nc2n1CCC2` to `O=c1c2c(nc3n1CCCCCC3)CCCCCC2`, the logD rises from 1.07 to 2.77.

Going from `CC1CCCc2nc3c(c(=O)n21)CCC3` (stereo not drawn) to `CCCc1c(C)nc2ccccn2c1=O`, the logD rises from 1.21 to 1.85.

For `CCc1c(C)nc2cc(C)cc(C)n2c1=O`, the logD was 1.8.
